Our source for the GI50 values is patent publication US20260028350A1, “TOXIN MOLECULE SUITABLE FOR ANTIBODY-DRUG CONJUGATE” (Minghui Pharmaceutical (Hangzhou) Limited, priority 2022, published 2026).

The first assay deals with KPL-4 Cells. The experiment in a line: Cell proliferation inhibition test (CellTiter-Glo, 72h). It is filed as cell-based. The conditions noted are these: 72h incubation, Table 2 run. On the procedure:
KPL-4 Cells in the logarithmic phase of growth were collected and re-suspended with fresh RPMI1640 complete cell culture medium, and adjusted to 2×10^4 cells/mL after cell counting. Cells were seeded into 96-well cell culture plates at 100 µL/well, and placed in a CO2 incubator (37° C., 5% CO2) overnight. In the next day, one of the cell culture plates were taken out, balanced to room temperature, and CellTiter-Glo reagent (Promega, USA), which was pre-balanced to room temperature and evenly mixed, was added into the plate at 100 μl. The plate was kept in dark for 30 min, and then luminescence value was read with a microplate reader (denoted as Go value). The other cell culture plates were taken out and added with different concentrations of test compounds or DMSO (final concentration 0.5%) in corresponding wells. After incubated for 72h in a CO2 incubator, the cell culture plates were balanced to room temperature and tested for cell viabilities using CellTiter-Glo reagent as described above (denoted as G3 value).
DXd was used as a positive reference compound with the following structure:
The cell proliferation rates were calculated using the following formula: Cell proliferation rate (%)=(mean of G3compound−mean of G0)/(mean of G3DMSO−mean of G0)×100.
Background: Cellular ATP, detected with luciferase, serves as a proxy for viable cell number.
For orientation: GI50 means the concentration giving 50% growth inhibition. Read a high GI50 as less potent growth inhibition. On to `CC[C@@]1(O)C(=O)OCc2c1cc1n(c2=S)Cc2c-1nc1cc(F)c(C)c3c1c2[C@@H](NC(=O)C1CC(O)C1)CC3` (stereo partly shown) [Example 29], for which growth was halved (GI50) at 5.96 nM.

`CC[C@@]1(O)C(=O)OCc2c1cc1n(c2=S)Cc2c-1nc1cc(F)c(C)c3c1c2[C@@H](NC(=O)C1CCC(O)CC1)CC3` (stereo partly shown) [Example 33] had a GI50 of 6.34 nM.

`CC[C@@]1(O)C(=O)OCc2c1cc1n(c2=S)Cc2c-1nc1cc(F)c(C)c3c1c2[C@@H](NC(=O)C1CCC(O)CC1)CC3` (stereo partly shown) [Example 32] displayed a GI50 of 8.47 nM.

Take `CC[C@@]1(O)C(=O)OCc2c1cc1n(c2=S)Cc2c-1nc1cc(F)c(C)c3c1c2[C@@H](NC(=O)C1CC(O)C1)CC3` (stereo partly shown) [Example 30]: growth was halved (GI50) at 11.3 nM. This GI50 and that of the compound before are within 1.5-fold of each other.

The assay is the same for the next values; noted with them: KPL4, 72 h, 72h incubation, Table 1 run (DXd: average of 2 measurements).
On to `CC[C@@]1(O)C(=O)OCc2c1cc1n(c2=S)Cc2c-1nc1cc(F)c(C)cc1c2CN` [Example 2], for which the GI50 stood at 2.82 nM.

The compound `CC[C@@]1(O)C(=O)OCc2c1cc1n(c2=O)Cc2c-1nc1cc(F)c(C)c3c1c2[C@@H](NC(=O)CO)CS3` [DXd, reference compound] registered a 50% growth inhibitory concentration (GI50) of 45.4 nM. This GI50 lies about 16-fold higher than the previous one.

`CC[C@@]1(O)C(=O)OCc2c1cc1n(c2=S)Cc2c-1nc1ccc(N)c3c1c2CCC3` [Example 5] gave a GI50 of 1.84 nM.

On to `CC[C@@]1(O)C(=O)OCc2c1cc1n(c2=S)Cc2c-1nc1cc(F)c(C)cc1c2CNC(=O)CO` [Example 3], for which the GI50 is 6.27 nM.

`CC[C@@]1(O)C(=O)OCc2c1cc1n(c2=S)Cc2c-1nc1cc(F)c(C)cc1c2CCCCO` [Example 4] showed a GI50 of 2.23 nM.

The assay is the same for the next values; noted with them: KPL4, 72 h, 72h incubation, Table 2 run.
`CC[C@@]1(O)C(=O)OCc2c1cc1n(c2=S)Cc2c-1nc1cc3c(cc1c2CNC(=O)CN)OCO3` [Example 9]: the GI50 came out at 12.2 nM.

`CC[C@@]1(O)C(=O)OCc2c1cc1n(c2=S)Cc2c-1nc1ccccc1c2CCNC(C)C` [Example 11] returned a GI50 of 6.48 nM.

As to `CC[C@@]1(O)C(=O)OCc2c1cc1n(c2=S)Cc2cc3cc(N)c(F)cc3nc2-1` [Example 13], the GI50 worked out at 0.63 nM.

`CC[C@@]1(O)C(=O)OCc2c1cc1n(c2=S)Cc2cc3c(CCCCO)c(C)c(F)cc3nc2-1` [Example 6] yielded a GI50 of 3.45 nM.

For `CC[C@@]1(O)C(=O)OCc2c1cc1n(c2=S)Cc2c-1nc1cc(F)c(C)c3c1c2[C@@H](NC(=O)C[C@H](C)O)CC3` [Example 27], the GI50 came out at 2.93 nM.

Take `CC[C@@]1(O)C(=O)OCc2c1cc1n(c2=S)Cc2c-1nc1cc3c(cc1c2CNC(=O)C(O)C1CC1)OCO3` (stereo partly shown) [Example 14]: it took 3.49 nM to inhibit growth by half (GI50).

Compound `CC[C@@]1(O)C(=O)OCc2c1cc1n(c2=S)Cc2c-1nc1cc3c(cc1c2CNC(=O)CO)OCO3` [Example 8] registered a GI50 of 12 nM.

Compound `CC[C@@]1(O)C(=O)OCc2c1cc1n(c2=S)Cc2c-1nc1cc(F)c(C)cc1c2CNC(=O)C1CCC(O)CC1` (stereo partly shown) [Example 21] had a GI50 of 16.8 nM.

In the case of `CC[C@@]1(O)C(=O)OCc2c1cc1n(c2=S)Cc2c-1nc1cc(F)c(C)cc1c2CNC(=O)C(C)O` (stereo partly shown) [Example 22], halving of growth (GI50) required 2.81 nM.

As for `CC[C@@]1(O)C(=O)OCc2c1cc1n(c2=O)Cc2c-1nc1cc(F)c(C)c3c1c2[C@@H](NC(=O)CO)CS3` [DXd, reference compound], the GI50 turned out to be 22.8 nM.

The compound `CC[C@@]1(O)C(=O)OCc2c1cc1n(c2=S)Cc2c-1nc1cc(F)c(C)cc1c2CNC(=O)C[C@H](C)O` [Example 24] displayed a GI50 of 2.81 nM. Compared with the last compound, the GI50 is about 8.1-fold lower.

For the compound `CC[C@@]1(O)C(=O)OCc2c1cc1n(c2=S)Cc2c-1nc1cc3c(cc1c2CNC(=O)C[C@@H](C)O)OCO3` [Example 18], the GI50 is 4.35 nM. This GI50 lies about 1.5-fold higher than the previous one.

`CC[C@@]1(O)C(=O)OCc2c1cc1n(c2=S)Cc2c-1nc1cc3c(cc1c2CNC(=O)C1CC(O)C1)OCO3` (stereo partly shown) [Example 16] came in with a GI50 of 14.5 nM. Against the preceding compound, the GI50 is about 3.3-fold higher.

The compound `CC[C@@]1(O)C(=O)OCc2c1cc1n(c2=S)Cc2c-1nc1cc(F)c(C)c3c1c2[C@@H](NC(=O)C[C@@H](C)O)CC3` [Example 26] showed a GI50 of 3.24 nM.

The compound `CC[C@@]1(O)C(=O)OCc2c1cc1n(c2=S)Cc2c-1nc1cc3c(cc1c2CNC(=O)C[C@H](C)O)OCO3` [Example 19] registered a concentration for 50% growth inhibition (GI50) of 4.27 nM.

With `CC[C@@]1(O)C(=O)OCc2c1cc1n(c2=S)Cc2c-1nc1cc(F)c(C)c3c1c2[C@@H](NC(=O)C1CCC(O)CC1)CC3` (stereo partly shown) [Example 31], the GI50 came out at 8.62 nM.

For the compound `CC[C@@]1(O)C(=O)OCc2c1cc1n(c2=S)Cc2c-1nc1cc3c(cc1c2CNC(=O)C(C)O)OCO3` (stereo partly shown) [Example 15], the GI50 was 4.13 nM. Compared with the last compound, the GI50 is about 2.1-fold lower.

Consider `CC[C@@]1(O)C(=O)OCc2c1cc1n(c2=S)Cc2c-1nc1cc(F)c(C)cc1c2CNC(=O)C[C@@H](C)O` [Example 25], for which the GI50 is 2.21 nM.

The compound `CC[C@@]1(O)C(=O)OCc2c1cc1n(c2=S)Cc2c-1nc1cc(F)c(C)c3c1c2[C@@H](NC(=O)C1CC(O)C1)CC3` (stereo partly shown) [Example 28] displayed a GI50 of 10.8 nM. This GI50 lies about 4.9-fold higher than the previous one.

As for `CC[C@@]1(O)C(=O)OCc2c1cc1n(c2=S)Cc2c-1nc1cc3c(cc1c2CCNC(C)C)OCO3` [Example 10], the GI50 turned out to be 2.24 nM.

`CC[C@@]1(O)C(=O)OCc2c1cc1n(c2=S)Cc2c-1nc1cc(F)c(C)cc1c2CNC(=O)C(O)C1CC1` (stereo partly shown) [Example 23]: the GI50 came to 1.73 nM.

As for `CC[C@@]1(O)C(=O)OCc2c1cc1n(c2=S)Cc2c-1nc1cc3c(cc1c2C12CC(N)(C1)C2)OCO3` [Example 12], the GI50 turned out to be 2.98 nM.
